The values that follow come from patent US20130079345A1, “[…] ACTIVE DISUBSTITUTED TRIAZINE DERIVATIVES” (BAYER INTELLECTUAL PROPERTY GMBH, priority 2010, published 2013).

Structures can show the parent of a compound that is named as a salt.

For the test, the system named is MaTu/ADR cells. Briefly: Cell viability, MaTu/ADR cells. The settings on record: Homo sapiens. It is filed as cell-based. Here is the method:
HeLa- or MDAMB468-Cells or MATU ADR, H460, DU145, CACO-2 or B16F10 cells were maintained in RPMI 1640 or McCoy's 5A cell culture medium+glutamine (PAN Biotech GmbH, Aidenbach, Germany; order no. P04-22100; P04-05500) supplemented with 10% fetal calf serum “Gold” (PAA Laboratories GmbH, Pasching, Austria; order no. A15-151) and grown at 37° C., 5% CO2. For the cell viability assay, cells were seeded with a density of 400 (Hela cells, DSMZ Braunschweig order no. ACC57) or 800 (MDAMB468 cells, ATCC order no. HTB-132) per well in 25 μL in 384-well plates (Greiner Bio-One, Frickenhausen, Germany; order no. 781080). After overnight incubation at 37° C./5% CO2, 25 nL or 75 nL compound were added to each sample well by using BIOMEK FXP Laboratory Automation Workstation (Beckman Coulter, USA). Wells with cells and 0.1% or 0.3% DMSO in culture medium were used as positive controls, wells with cells and 10 μM staurosporine in culture medium were used as negative controls. The cells were incubated with the compounds for 72 h at 37° C./5% CO2. For measurement of cell viability […] Cell Titer Glo reagent (Promega, Madison, USA; order no. G7573), 1:2 diluted with cell culture medium, was added to each well. The 384well-plates were placed for 2 min on an orbital microplate shaker and incubated for further 10 min at room temperature to stabilize the luminescence signal. Luminescence was measured by Envision Plate Reader (Perkin Elmer, USA). […]
Cultivated tumour cells (NCl-H460, human non-small cell lung carcinoma cells, ATCC HTB-177; DU 145, hormone-independent human prostate carcinoma cells, ATCC HTB-81; HeLa-MaTu, human cervical carcinoma cells, EPO-GmbH, Berlin; HeLa-MaTu-ADR, multidrug-resistant human cervical carcinoma cells, EPO-GmbH, Berlin; HeLa human cervical tumour cells, ATCC CCL-2; Caco-2 human colorectal carcinoma, ATCC HTB-37; B16F10 mouse melanoma cells, ATCC CRL-6475) were plated at a density of 5,000 cells/well (DU145, HeLa-MaTu-ADR), 3,000 cells/well (NCl-H460, HeLa-MaTu, HeLa), 1,500 cells/well (Caco-2), or 1,000 cells/well (B16F10) in a 96-well multititer plate in 200 μL of their respective growth medium supplemented with 10% fetal calf serum. […] Cell proliferation was determined by staining the cells with crystal violet: The cells were fixed by adding 20 μl/measuring point of an 11% glutaric aldehyde solution at room temperature for 15 minutes. […] The extinction was determined by photometry at a wavelength of 595 nm. The change of cell number, in percent, was calculated by normalization of the measured values to the extinction values of the zero-point plate (equivalent to 0%) and the extinction of the untreated (0 μm) cells (equivalent to 100%). The IC50 values were determined by means of a 4 parameter fit using the company's own software.
The term IC50 denotes the concentration at which inhibition is half-maximal. A high value points to weaker potency. Consider `COc1ccccc1-c1ncnc(Nc2cccc(S(N)(=O)=O)c2)n1` [C1′, 3-[(4-(2-Methoxyphenyl)-1,3,5-triazin-2-yl)amino]benzenesulfonamide trifluoroacetic acid salt], for which the midpoint of inhibition, the IC50, lay at 760 nM.
The result for `COc1ccccc1-c1ncnc(Nc2cccc(CS(N)(=O)=O)c2)n1` [B1′, 3-[(4-(2-Methoxyphenyl)-1,3,5-triazin-2-yl)amino]benzenemethanesulfonamide trifluoroacetic acid salt] reads 3200 nM.
In turn, `COc1cc(F)ccc1-c1ncnc(Nc2cccc(CS(N)(=O)=O)c2)n1` [Compound B2, 3-[(4-(4-Fluoro-2-methoxyphenyl)-1,3,5-triazin-2-yl)amino]benzenemethanesulfonamide] returned an IC50 of 1000 nM.
Consider `NS(=O)(=O)Cc1cccc(Nc2ncnc(-c3ccccc3OCc3ccccc3)n2)c1` [B13′, 3-[(4-(2-Benzyloxyphenyl)-1,3,5-triazin-2-yl)amino]benzenemethanesulfonamide trifluoroacetic acid salt], for which the half-inhibitory concentration (IC50) turned out to be 290 nM.
